Results reported in PubChem BioAssay (NCI).
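Cells were grown in 96-well plates and exposed to each compound for 48 hours at five concentrations; endpoints were interpolated linearly between bracketing concentrations, or set to the highest concentration if not reached. Abbreviation: GI50, concentration required for 50% inhibition of growth. TGI: concentration producing complete growth inhibition.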

Tests used:
Assay in all cases: NCI tumour cell line growth inhibition, 48 h
786-0 renal = system: 786-0 renal
A549 NSCLC = system: A549 NSCLC
ACHN renal = system: ACHN renal
CCRF-CEM leukemia = system: CCRF-CEM leukemia
DLD-1 colon = system: DLD-1 colon
EKVX NSCLC = system: EKVX NSCLC
HCC-2998 colon = system: HCC-2998 colon
HCT-116 colon = system: HCT-116 colon
HCT-15 colon = system: HCT-15 colon
HL-60(TB) leukemia = system: HL-60(TB) leukemia
HOP-18 NSCLC = system: HOP-18 NSCLC
HOP-62 NSCLC = system: HOP-62 NSCLC
HOP-92 NSCLC = system: HOP-92 NSCLC
HT29 colon = system: HT29 colon
IGROV1 ovarian = system: IGROV1 ovarian
K-562 leukemia = system: K-562 leukemia
KM12 colon = system: KM12 colon
KM20L2 colon = system: KM20L2 colon
LOX IMVI melanoma = system: LOX IMVI melanoma
LXFL 529 NSCLC = system: LXFL 529 NSCLC
M14 melanoma = system: M14 melanoma
M19-MEL melanoma = system: M19-MEL melanoma
MALME-3M melanoma = system: MALME-3M melanoma
MOLT-4 leukemia = system: MOLT-4 leukemia
NCI-H23 lung = system: NCI-H23 lung
NCI-H460 lung = system: NCI-H460 lung
NCI-H522 lung = system: NCI-H522 lung
OVCAR-3 ovarian = system: OVCAR-3 ovarian
OVCAR-4 ovarian = system: OVCAR-4 ovarian
OVCAR-5 ovarian = system: OVCAR-5 ovarian
OVCAR-8 ovarian = system: OVCAR-8 ovarian
RXF 393 renal = system: RXF 393 renal
SF-295 CNS = system: SF-295 CNS
SF-539 CNS = system: SF-539 CNS
SK-MEL-2 melanoma = system: SK-MEL-2 melanoma
SK-MEL-28 melanoma = system: SK-MEL-28 melanoma
SK-MEL-5 melanoma = system: SK-MEL-5 melanoma
SK-OV-3 ovarian = system: SK-OV-3 ovarian
SN12C renal = system: SN12C renal
SNB-75 CNS = system: SNB-75 CNS
SNB-78 CNS = system: SNB-78 CNS
SW-620 colon = system: SW-620 colon
TK-10 renal = system: TK-10 renal
U251 CNS = system: U251 CNS
UACC-257 melanoma = system: UACC-257 melanoma
UACC-62 melanoma = system: UACC-62 melanoma
UO-31 renal = system: UO-31 renal
A498 renal = system: A498 renal
CAKI-1 renal = system: CAKI-1 renal
COLO 205 colon = system: COLO 205 colon
DMS 114 small cell lung = system: DMS 114 small cell lung
DMS 273 small cell lung = system: DMS 273 small cell lung
NCI-H226 lung = system: NCI-H226 lung
RPMI-8226 leukemia = system: RPMI-8226 leukemia
SF-268 CNS = system: SF-268 CNS
SR leukemia = system: SR leukemia
XF 498 CNS = system: XF 498 CNS

C1=CCCC=CCC1.C[PH+](C)C.C[PH+](C)C.C[PH+](C)C.[Cl-].[Ir]
GI50 (786-0 renal): > 100 µM | TGI (786-0 renal): > 100 µM | GI50 (A549 NSCLC): 80.1 µM | TGI (A549 NSCLC): > 100 µM | GI50 (ACHN renal): > 100 µM | TGI (ACHN renal): > 100 µM | GI50 (CCRF-CEM leukemia): 19.4 µM | TGI (CCRF-CEM leukemia): 71.7 µM | GI50 (DLD-1 colon): > 100 µM | TGI (DLD-1 colon): > 100 µM | GI50 (EKVX NSCLC): 76.1 µM | TGI (EKVX NSCLC): > 100 µM | GI50 (HCC-2998 colon): 91.4 µM | TGI (HCC-2998 colon): > 100 µM | GI50 (HCT-116 colon): 42.9 µM | TGI (HCT-116 colon): > 100 µM | GI50 (HCT-15 colon): > 100 µM | TGI (HCT-15 colon): > 100 µM | GI50 (HL-60(TB) leukemia): 28.7 µM | TGI (HL-60(TB) leukemia): 75.3 µM | GI50 (HOP-18 NSCLC): > 100 µM | TGI (HOP-18 NSCLC): > 100 µM | GI50 (HOP-62 NSCLC): > 100 µM | TGI (HOP-62 NSCLC): > 100 µM | GI50 (HOP-92 NSCLC): 28.6 µM | TGI (HOP-92 NSCLC): 98.8 µM | GI50 (HT29 colon): 47.6 µM | TGI (HT29 colon): > 100 µM | GI50 (IGROV1 ovarian): 36.3 µM | TGI (IGROV1 ovarian): > 100 µM | GI50 (K-562 leukemia): 26.6 µM | TGI (K-562 leukemia): > 100 µM | GI50 (KM12 colon): 43.6 µM | TGI (KM12 colon): > 100 µM | GI50 (KM20L2 colon): > 100 µM | TGI (KM20L2 colon): > 100 µM | GI50 (LOX IMVI melanoma): 31.4 µM | TGI (LOX IMVI melanoma): > 100 µM | GI50 (LXFL 529 NSCLC): 17.3 µM | TGI (LXFL 529 NSCLC): 62.2 µM | GI50 (M14 melanoma): > 100 µM | TGI (M14 melanoma): > 100 µM | GI50 (M19-MEL melanoma): 39.8 µM | TGI (M19-MEL melanoma): > 100 µM | GI50 (MALME-3M melanoma): 22.9 µM | TGI (MALME-3M melanoma): 61.5 µM | GI50 (MOLT-4 leukemia): 30.2 µM | TGI (MOLT-4 leukemia): > 100 µM | GI50 (NCI-H23 lung): > 100 µM | TGI (NCI-H23 lung): > 100 µM | GI50 (NCI-H460 lung): 77.9 µM | TGI (NCI-H460 lung): > 100 µM | GI50 (NCI-H522 lung): 26.4 µM | TGI (NCI-H522 lung): 60.1 µM | GI50 (OVCAR-3 ovarian): 29.6 µM | TGI (OVCAR-3 ovarian): 77.4 µM | GI50 (OVCAR-4 ovarian): 67.8 µM | TGI (OVCAR-4 ovarian): > 100 µM | GI50 (OVCAR-5 ovarian): > 100 µM | TGI (OVCAR-5 ovarian): > 100 µM | GI50 (OVCAR-8 ovarian): 35.2 µM | TGI (OVCAR-8 ovarian): > 100 µM | GI50 (RXF 393 renal): > 100 µM | TGI (RXF 393 renal): > 100 µM | GI50 (SF-295 CNS): > 100 µM | TGI (SF-295 CNS): > 100 µM | GI50 (SF-539 CNS): > 100 µM | TGI (SF-539 CNS): > 100 µM | GI50 (SK-MEL-2 melanoma): 23.4 µM | TGI (SK-MEL-2 melanoma): 60.4 µM | GI50 (SK-MEL-28 melanoma): 46.6 µM | TGI (SK-MEL-28 melanoma): > 100 µM | GI50 (SK-MEL-5 melanoma): 70 µM | TGI (SK-MEL-5 melanoma): > 100 µM | GI50 (SK-OV-3 ovarian): > 100 µM | TGI (SK-OV-3 ovarian): > 100 µM | GI50 (SN12C renal): 82.6 µM | TGI (SN12C renal): > 100 µM | GI50 (SNB-75 CNS): 34.3 µM | TGI (SNB-75 CNS): > 100 µM | GI50 (SNB-78 CNS): > 100 µM | TGI (SNB-78 CNS): > 100 µM | GI50 (SW-620 colon): 36.4 µM | TGI (SW-620 colon): > 100 µM | GI50 (TK-10 renal): > 100 µM | TGI (TK-10 renal): > 100 µM | GI50 (U251 CNS): 46.2 µM | TGI (U251 CNS): > 100 µM | GI50 (UACC-257 melanoma): 23.2 µM | TGI (UACC-257 melanoma): 59.1 µM | GI50 (UACC-62 melanoma): 32.6 µM | TGI (UACC-62 melanoma): > 100 µM | GI50 (UO-31 renal): > 100 µM | TGI (UO-31 renal): > 100 µM

Cc1ncc(CI)c(CI)c1O
TGI (786-0 renal): 35.3 µM | TGI (A498 renal): > 100 µM | TGI (CAKI-1 renal): > 100 µM | TGI (CCRF-CEM leukemia): 23.2 µM | TGI (COLO 205 colon): > 100 µM | TGI (DLD-1 colon): 55.8 µM | TGI (DMS 114 small cell lung): > 100 µM | TGI (DMS 273 small cell lung): 32.1 µM | TGI (HCC-2998 colon): 33.3 µM | TGI (HCT-116 colon): 31.4 µM | TGI (HL-60(TB) leukemia): 5.29 µM | TGI (HOP-62 NSCLC): 35.3 µM | TGI (HOP-92 NSCLC): > 100 µM | TGI (IGROV1 ovarian): > 100 µM | TGI (K-562 leukemia): 31.5 µM | TGI (LXFL 529 NSCLC): > 100 µM | TGI (M14 melanoma): > 100 µM | TGI (M19-MEL melanoma): > 100 µM | TGI (MALME-3M melanoma): 42.5 µM | TGI (MOLT-4 leukemia): 41.6 µM | TGI (NCI-H226 lung): 6.1 µM | TGI (NCI-H23 lung): 48.2 µM | TGI (NCI-H460 lung): > 100 µM | TGI (NCI-H522 lung): 12.7 µM | TGI (OVCAR-4 ovarian): > 100 µM | TGI (RPMI-8226 leukemia): 31.4 µM | TGI (SF-268 CNS): 54.7 µM | TGI (SF-539 CNS): 43.8 µM | TGI (SK-MEL-2 melanoma): 42.4 µM | TGI (SK-MEL-28 melanoma): 44.6 µM | TGI (SK-OV-3 ovarian): > 100 µM | TGI (SN12C renal): 35.2 µM | TGI (SNB-75 CNS): 41.2 µM | TGI (SNB-78 CNS): > 100 µM | TGI (SR leukemia): 36.7 µM | TGI (UACC-62 melanoma): > 100 µM | TGI (UO-31 renal): 6.28 µM | TGI (XF 498 CNS): 38.4 µM
